# From PMC9848269, “Investigation of novel alkyl/benzyl (4-sulphamoylphenyl)carbamimidothioates as carbonic anhydrase inhibitors” (Journal of Enzyme Inhibition and Medicinal Chemistry, 2023)
# Where two headings read alike, the source gives them in different places.
# How the values were obtained:
# [1] = target: T1, hCA XIII (Homo sapiens, UniProt Q8N1Q1); assay: stopped-flow CO2 hydration; assay type: biochemical
# T1 construct: gene CA13; recombinant, obtained in-house; cytosolic
# Excerpt: stopped-flow CO2 hydration on hCA XIII
# [2] = target: T2, hCA II (Homo sapiens, UniProt P00918); assay: biochemical; design: stopped-flow CO2 hydration assay, phenol red 557 nm, Hepes pH 7.5, recombinant alpha-CA, 6 h preincubation
# T2 construct: gene CA2; recombinant, obtained in-house; cytosolic
# Experimental: (§1) An applied photophysics stopped-flow instrument has been used for assaying the CA-catalysed CO2 hydration activity. Phenol red (at a concentration of 0.2 mM) was used as indicator, working at the absorbance maximum of 557 nm, with 20 mM Hepes (pH 7.5) as buffer for α-CAs or 20 mM TRIS (pH 8.4) as buffer for β-CAs, and 20 mM Na2SO4 (for maintaining constant the ionic strength), following the initial rates of the CA-catalysed CO2 hydration reaction for a period of 10 – 100 s. The CO2 concentrations ranged from 1.7 to 17 mM for the determination of the kinetic parameters and inhibition constants. For each inhibitor, at least six traces of the initial 5 – 10% of the reaction have been used for determining the initial velocity. The uncatalysed rates were determined in the same manner and subtracted from the total observed rates. Stock solutions of inhibitor (0.1 mM) were prepared in distilled – deionised water, and dilutions up to 0.01 nM were done thereafter with the assay buffer. Inhibitor and enzyme solutions were preincubated together for 6 h at room temperature prior to assay in order to allow for the formation of the E – I complex. The inhibition constants were obtained by nonlinear least-squares methods using PRISM 3 and the Cheng–Prusoff equation, as reported earlier[12]^,[13]^,[20]^,[21], and represent the mean from at least three different determinations. All CA isoforms were recombinant ones obtained in-house as reported earlier[22]^,[23] and their concentrations in the assay system ranged between 7.6–12.5 nM.
# [3] = target: T3, hCA VII (Homo sapiens, UniProt P43166); assay: biochemical; design: stopped-flow CO2 hydration assay, phenol red 557 nm, Hepes pH 7.5, recombinant alpha-CA, 6 h preincubation
# T3 construct: gene CA7; recombinant, obtained in-house; cytosolic
# T3 sequence (P43166 whole entry): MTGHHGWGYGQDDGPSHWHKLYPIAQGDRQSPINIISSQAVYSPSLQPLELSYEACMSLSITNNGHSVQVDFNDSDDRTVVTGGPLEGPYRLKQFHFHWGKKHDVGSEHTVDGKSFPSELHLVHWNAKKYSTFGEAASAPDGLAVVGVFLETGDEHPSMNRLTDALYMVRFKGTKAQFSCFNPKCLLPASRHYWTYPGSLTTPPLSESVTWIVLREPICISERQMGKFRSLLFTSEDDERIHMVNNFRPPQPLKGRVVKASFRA
# Experimental: as §1
# [4] = target: T4, hCA I (Homo sapiens, UniProt P00915); assay: biochemical; design: stopped-flow CO2 hydration assay, phenol red 557 nm, Hepes pH 7.5, recombinant alpha-CA, 6 h preincubation
# T4 construct: gene CA1; recombinant, obtained in-house; cytosolic
# T4 sequence (P00915 2-261): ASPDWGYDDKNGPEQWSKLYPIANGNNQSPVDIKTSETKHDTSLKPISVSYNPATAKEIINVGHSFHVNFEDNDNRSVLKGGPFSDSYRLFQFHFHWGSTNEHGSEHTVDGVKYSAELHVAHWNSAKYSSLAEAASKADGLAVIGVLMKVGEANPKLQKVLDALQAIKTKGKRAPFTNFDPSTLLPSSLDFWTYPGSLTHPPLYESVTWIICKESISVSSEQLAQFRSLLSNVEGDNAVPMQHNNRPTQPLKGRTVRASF
# Experimental: as §1
# [5] = target: T5, StCA2 (Salmonella enterica, UniProt O30898); assay: stopped-flow CO2 hydration; assay type: biochemical; details: 20 mM TRIS pH 8.4, 20 mM Na2SO4, CO2 1.7-17 mM; 6 h preincubation at room temperature
# T5 construct: gene mig-5; recombinant, obtained in-house; beta-class CA
# T5 sequence (O30898 41-246): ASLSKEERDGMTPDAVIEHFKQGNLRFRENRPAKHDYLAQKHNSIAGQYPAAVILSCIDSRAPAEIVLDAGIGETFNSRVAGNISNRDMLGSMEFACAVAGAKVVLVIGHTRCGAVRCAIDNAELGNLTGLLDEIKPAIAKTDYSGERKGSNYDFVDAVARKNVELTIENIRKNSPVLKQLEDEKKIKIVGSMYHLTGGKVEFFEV
# Excerpt: stopped-flow CO2 hydration on StCA2
# [6] = target: T2, hCA II; assay: biochemical; design: stopped-flow CO2 hydration assay, phenol red absorbance at 557 nm, Ki via Cheng-Prusoff
# Experimental: as §1, with “nM. Sulphonamides 8a–o incorporating carbamimidothioate moieties have been tested as inhibitors of four human (h) CA isoforms, the cytosolic hCA I, II, VII and XIII, as well as the bacterial β-CAs from Mammaliicoccus (Staphylococcus) sciuri[14] and Salmonella enterica (serovar Typhimurium), StCA1 and StCA2[15]. It should be mentioned that the first bacterial enzyme, MscCA, was originally reported by us as Staphylococcus aureus β-CA, SauCA based on a genomic sequence annotated in the data bases in 2017[14]. […] In 2020, the species was renamed as belonging to a new genus, as Mammaliicoccus sciuri. The hCAs included in the study were the ubiquitous hCA I and II, as well as hCA VII and XIII which are found in fewer tissues compared to hCA I and II, and are involved in several pathologies in the CNS (hCA VII) or reproductive tract (hCA XIII)[17]^,[18].” for “nM.”
# [7] = target: T3, hCA VII; assay: biochemical; design: stopped-flow CO2 hydration assay, phenol red absorbance at 557 nm, Ki via Cheng-Prusoff
# Experimental: as §1, with “nM. Sulphonamides 8a–o incorporating carbamimidothioate moieties have been tested as inhibitors of four human (h) CA isoforms, the cytosolic hCA I, II, VII and XIII, as well as the bacterial β-CAs from Mammaliicoccus (Staphylococcus) sciuri[14] and Salmonella enterica (serovar Typhimurium), StCA1 and StCA2[15]. It should be mentioned that the first bacterial enzyme, MscCA, was originally reported by us as Staphylococcus aureus β-CA, SauCA based on a genomic sequence annotated in the data bases in 2017[14]. […] In 2020, the species was renamed as belonging to a new genus, as Mammaliicoccus sciuri. The hCAs included in the study were the ubiquitous hCA I and II, as well as hCA VII and XIII which are found in fewer tissues compared to hCA I and II, and are involved in several pathologies in the CNS (hCA VII) or reproductive tract (hCA XIII)[17]^,[18].” for “nM.”
# [8] = target: T4, hCA I; assay: biochemical; design: stopped-flow CO2 hydration assay, phenol red absorbance at 557 nm, Ki via Cheng-Prusoff
# Experimental: as §1, with “nM. Sulphonamides 8a–o incorporating carbamimidothioate moieties have been tested as inhibitors of four human (h) CA isoforms, the cytosolic hCA I, II, VII and XIII, as well as the bacterial β-CAs from Mammaliicoccus (Staphylococcus) sciuri[14] and Salmonella enterica (serovar Typhimurium), StCA1 and StCA2[15]. It should be mentioned that the first bacterial enzyme, MscCA, was originally reported by us as Staphylococcus aureus β-CA, SauCA based on a genomic sequence annotated in the data bases in 2017[14]. […] In 2020, the species was renamed as belonging to a new genus, as Mammaliicoccus sciuri. The hCAs included in the study were the ubiquitous hCA I and II, as well as hCA VII and XIII which are found in fewer tissues compared to hCA I and II, and are involved in several pathologies in the CNS (hCA VII) or reproductive tract (hCA XIII)[17]^,[18].” for “nM.”
# [9] = target: T1, hCA XIII; assay: biochemical; design: stopped-flow CO2 hydration assay, phenol red absorbance at 557 nm, Ki via Cheng-Prusoff
# Experimental: as §1, with “nM. Sulphonamides 8a–o incorporating carbamimidothioate moieties have been tested as inhibitors of four human (h) CA isoforms, the cytosolic hCA I, II, VII and XIII, as well as the bacterial β-CAs from Mammaliicoccus (Staphylococcus) sciuri[14] and Salmonella enterica (serovar Typhimurium), StCA1 and StCA2[15]. It should be mentioned that the first bacterial enzyme, MscCA, was originally reported by us as Staphylococcus aureus β-CA, SauCA based on a genomic sequence annotated in the data bases in 2017[14]. […] In 2020, the species was renamed as belonging to a new genus, as Mammaliicoccus sciuri. The hCAs included in the study were the ubiquitous hCA I and II, as well as hCA VII and XIII which are found in fewer tissues compared to hCA I and II, and are involved in several pathologies in the CNS (hCA VII) or reproductive tract (hCA XIII)[17]^,[18].” for “nM.”
# [10] = target: T5, StCA2; design: stopped-flow CO2 hydration assay, phenol red absorbance at 557 nm, Ki via Cheng-Prusoff; details: inhibitor
# Experimental: as §1, with “All CA isoforms were recombinant ones obtained in-house as reported earlier[22]^,[23] and their concentrations in the assay system ranged between 7.6–12.5 nM.” left out
# [11] = target: T6, StCA1; assay: stopped-flow CO2 hydration; assay type: biochemical, Salmonella enterica subsp. enterica serovar Typhimurium; details: 20 mM TRIS pH 8.4, 20 mM Na2SO4, CO2 1.7-17 mM; 6 h preincubation at room temperature
# T6 construct: recombinant, obtained in-house; beta-class CA
# Excerpt: stopped-flow CO2 hydration on StCA1
# [12] = target: T1, hCA XIII; assay: biochemical; design: stopped-flow CO2 hydration assay, phenol red 557 nm, Hepes pH 7.5, recombinant alpha-CA, 6 h preincubation
# Experimental: as §1
# [13] = target: T5, StCA2; design: stopped-flow CO2 hydration assay, phenol red 557 nm, TRIS pH 8.4, recombinant beta-CA, 6 h preincubation; details: inhibitor
# Experimental: as §1, with “For each inhibitor, at least six traces of the initial 5 – 10% of the reaction have been used for determining the initial velocity.” left out
# [14] = target: T3, hCA VII; assay: stopped-flow CO2 hydration; assay type: biochemical
# Excerpt: stopped-flow CO2 hydration on hCA VII
# [15] = target: T2, hCA II; assay: stopped-flow CO2 hydration; assay type: biochemical
# Excerpt: stopped-flow CO2 hydration on hCA II
# [16] = target: T4, hCA I; assay: stopped-flow CO2 hydration; assay type: biochemical
# Excerpt: stopped-flow CO2 hydration on hCA I
# T1 sequence (Q8N1Q1 whole entry): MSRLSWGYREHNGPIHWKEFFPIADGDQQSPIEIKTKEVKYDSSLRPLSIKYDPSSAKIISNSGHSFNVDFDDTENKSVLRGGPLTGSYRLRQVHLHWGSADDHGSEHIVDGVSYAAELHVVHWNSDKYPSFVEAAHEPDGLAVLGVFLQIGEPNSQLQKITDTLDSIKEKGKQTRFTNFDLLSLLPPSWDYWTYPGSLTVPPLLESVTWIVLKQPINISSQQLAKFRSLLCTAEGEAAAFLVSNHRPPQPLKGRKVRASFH
SMILES,Ki [2] [nM],Ki [3] [nM],Ki [4] [nM],Ki [12] [nM],Ki [13] [nM],other results
"CSC(N)=Nc1ccc(S(N)(=O)=O)cc1 [8a, Methyl (4-sulphamoylphenyl)carbamimidothioate]",85.8,18.9,90.4,–,–,Ki [1]: 97.5 nM; Ki [5]: 270 nM
"CCCCSC(N)=Nc1ccc(S(N)(=O)=O)cc1 [8b, Butyl (4-sulphamoylphenyl)carbamimidothioate]",73.6,13.8,76.4,–,–,Ki [5]: 348 nM
"CCCCCCSC(=N)Nc1ccc(S(N)(=O)=O)cc1 [8c, Hexyl (4-sulphamoylphenyl)carbamimidothioate]",–,–,–,–,–,Ki [6]: 2.5 nM; Ki [7]: 2.3 nM; Ki [8]: 78.8 nM; Ki [9]: 92.2 nM; Ki [10]: 898 nM
"CCCCCCCSC(N)=Nc1ccc(S(N)(=O)=O)cc1 [8d, Heptyl (4-sulphamoylphenyl)carbamimidothioate]",9.3,2.7,–,926,955,Ki [11]: 71.3 nM
"C=CCSC(N)=Nc1ccc(S(N)(=O)=O)cc1 [8e, Allyl (4-sulphamoylphenyl)carbamimidothioate]",–,–,–,814,4990,Ki [14]: 1.8 nM; Ki [15]: 8.2 nM; Ki [16]: 38.5 nM
"C#CCSC(N)=Nc1ccc(S(N)(=O)=O)cc1 [8f, Prop-2-yn-1-yl (4-sulphamoylphenyl)carbamimidothioate]",–,5.5,92.5,352,7120,Ki [15]: 6.9 nM
"NC(=Nc1ccc(S(N)(=O)=O)cc1)SCc1ccccc1 [8g, Benzyl (4-sulphamoylphenyl)carbamimidothioate]",–,2.4,68.1,491,–,Ki [11]: 52.2 nM; Ki [5]: 902 nM
"NC(=Nc1ccc(S(N)(=O)=O)cc1)SCc1ccc(Cl)cc1 [8h, 4-Chlorobenzyl (4-sulphamoylphenyl)carbamimidothioate]",34.4,2,73.2,892,6680,–
"NC(=Nc1ccc(S(N)(=O)=O)cc1)SCc1ccc(Br)cc1 [8i, 4-Bromobenzyl (4-sulphamoylphenyl)carbamimidothioate]",29.9,2.1,–,907,9700,Ki [16]: 60 nM
"N#Cc1ccc(CSC(N)=Nc2ccc(S(N)(=O)=O)cc2)cc1 [8j, 4-Cyanobenzyl (4-sulphamoylphenyl)carbamimidothioate]",21.5,–,82.8,302,5190,Ki [11]: 55.7 nM; Ki [14]: 1.5 nM
NC(=Nc1ccc(S(N)(=O)=O)cc1)SCc1ccc([N+](=O)[O-])cc1 [8k],9,2.6,77.2,856,6850,–
"NC(=Nc1ccc(S(N)(=O)=O)cc1)SCc1ccc(C(F)(F)F)cc1 [8l, 4-(Trifluoromethyl)benzyl (4-sulphamoylphenyl)carbamimidothioate]",8.9,2.3,73.5,–,5890,Ki [1]: 80.5 nM
"NC(=Nc1ccc(S(N)(=O)=O)cc1)SCc1cc(F)cc(F)c1 [8m, 3,5-Difluorobenzyl (4-sulphamoylphenyl)carbamimidothioate]",–,–,82.2,–,6310,Ki [1]: 75.6 nM; Ki [14]: 1.2 nM; Ki [15]: 1.7 nM
